# Data reported in PubChem BioAssay AID190 (DTP/NCI, 2004).
# Several values for one entry are separate records, joined by “and”; a condition that tells them apart may be missing. Equal entries are not always repeated. Inconclusive results and toxic doses are left out.
# Test system: AKR/Lw mice, AKR lymphoma ip, median survival T/C
# Experiment: NCI In Vivo Anticancer Drug Screen. Data for tumor model Lymphoma AKR (Transplanted) (intraperitoneal) in AKR/Lw mice
# Settings: endpoint: median survival time, higher = longer survival
# Description: The antitumor activity of compounds was measured in mice bearing transplantable tumors. Survival or tumor size were measured and the results are expressed as the measurement made in the treated group (T) divided by the measurement made in the vehicle treated control group (C). The tumor model used in this assay is Lymphoma AKR (Transplanted) (intraperitoneal) in AKR/Lw mice
# [1] = dose: 100.0 mg/kg/injection, schedule: Q01DX001 (ip), vehicle: saline
# [2] = dose: 200.0 mg/kg/injection, schedule: Q01DX001 (ip), vehicle: saline
# [3] = dose: 400.0 mg/kg/injection, schedule: Q01DX001 (ip), vehicle: saline
# [4] = dose: 100.0 mg/kg/injection, schedule: Q01DX001 (ip), vehicle: Klucel (hydroxypropylcellulose) (HPC)
# [5] = dose: 200.0 mg/kg/injection, schedule: Q01DX001 (ip), vehicle: Klucel (hydroxypropylcellulose) (HPC)
# [6] = dose: 400.0 mg/kg/injection, schedule: Q01DX001 (ip), vehicle: Klucel (hydroxypropylcellulose) (HPC)
# [7] = dose: 100.0 mg/kg/injection, schedule: Q01DX001 (ip), vehicle: saline with Tween-80
compound,measurement,setting,value
COc1cc([C@@H]2c3cc4c(c(O)c3C[C@H]3COC(=O)[C@@H]32)OCO4)cc(OC)c1O,T/C,"dose: 0.12 mg/kg/injection, schedule: Q01DX009 (ip), vehicle: Klucel (hydroxypropylcellulose) (HPC)",105 % of control
same,T/C,"dose: 0.25 mg/kg/injection, schedule: Q01DX009 (ip), vehicle: Klucel (hydroxypropylcellulose) (HPC)",97 % of control
CC(C)(CNc1ccc(C(=O)O)cc1)[N+](=O)[O-],T/C,[1],102 % of control
same,T/C,[2],95 % of control
same,T/C,[3],86 % of control
N[C@@H](Cc1ccc(N(CCCl)CCCl)cc1)C(=O)O,T/C,"dose: 0.25 mg/kg/injection, schedule: Q04DX008 (ip), vehicle: Klucel (hydroxypropylcellulose) (HPC)",102 % of control
same,T/C,"dose: 0.5 mg/kg/injection, schedule: Q04DX008 (ip), vehicle: Klucel (hydroxypropylcellulose) (HPC)",94 % of control
same,T/C,"dose: 0.75 mg/kg/injection, schedule: Q04DX008 (ip), vehicle: Klucel (hydroxypropylcellulose) (HPC)",119 % of control
same,T/C,"dose: 1.0 mg/kg/injection, schedule: Q04DX004 (ip), vehicle: Klucel (hydroxypropylcellulose) (HPC)",123 % of control
same,T/C,"dose: 1.0 mg/kg/injection, schedule: Q04DX004 (ip), vehicle: saline",115 % of control
same,T/C,"dose: 1.0 mg/kg/injection, schedule: Q04DX008 (ip), vehicle: Klucel (hydroxypropylcellulose) (HPC)",100 % of control
same,T/C,"dose: 2.0 mg/kg/injection, schedule: Q04DX004 (ip), vehicle: Klucel (hydroxypropylcellulose) (HPC)",158 % of control
same,T/C,"dose: 2.0 mg/kg/injection, schedule: Q04DX004 (ip), vehicle: saline",107 % of control
same,T/C,"dose: 2.0 mg/kg/injection, schedule: Q04DX008 (ip), vehicle: Klucel (hydroxypropylcellulose) (HPC)",116 % of control
same,T/C,"dose: 2.5 mg/kg/injection, schedule: Q01DX001 (ip), vehicle: Klucel (hydroxypropylcellulose) (HPC)",107 % of control
same,T/C,"dose: 3.9 mg/kg/injection, schedule: Q04DX004 (ip), vehicle: Klucel (hydroxypropylcellulose) (HPC)",179 % of control
same,T/C,"dose: 3.9 mg/kg/injection, schedule: Q04DX004 (ip), vehicle: saline",307 % of control
same,T/C,"dose: 6.0 mg/kg/injection, schedule: Q04DX004 (ip), vehicle: Klucel (hydroxypropylcellulose) (HPC)",200 % of control
same,T/C,"dose: 6.0 mg/kg/injection, schedule: Q04DX004 (ip), vehicle: saline",164 % of control
same,T/C,"dose: 7.7 mg/kg/injection, schedule: Q04DX008 (ip), vehicle: Klucel (hydroxypropylcellulose) (HPC)",100 % of control
same,T/C,"dose: 9.0 mg/kg/injection, schedule: Q01DX001 (ip), vehicle: Klucel (hydroxypropylcellulose) (HPC)",150 % of control
same,T/C,"dose: 12.0 mg/kg/injection, schedule: Q01DX001 (ip), vehicle: Klucel (hydroxypropylcellulose) (HPC)",102 % of control
same,T/C,"dose: 16.0 mg/kg/injection, schedule: Q01DX001 (ip), vehicle: Klucel (hydroxypropylcellulose) (HPC)",92 % of control
O=C(NC(CSC(c1ccccc1)c1ccccc1)C(=O)O)OCc1ccccc1 (stereo not given),T/C,[4],95 % of control
same,T/C,[5],93 % of control
same,T/C,[6],95 % of control
COc1cc2c(cc1OC)[C@H]1CNC[C@H]1[C@@H](c1ccccc1)C2,T/C,"dose: 75.0 mg/kg/injection, schedule: Q04DX003 (ip), vehicle: saline",110 % of control
same,T/C,[1],105 % of control
same,T/C,"dose: 150.0 mg/kg/injection, schedule: Q04DX003 (ip), vehicle: saline",103 % of control
same,T/C,[2],100 % of control
same,T/C,[3],97 % of control
O=[N+]([O-])O.[Ga],T/C,"dose: 1.25 mg/kg/injection, schedule: Q01DX001 (ip), vehicle: saline",102 % of control
same,T/C,"dose: 2.5 mg/kg/injection, schedule: Q01DX001 (ip), vehicle: saline",102 % of control
same,T/C,"dose: 2.5 mg/kg/injection, schedule: Q01DX009 (ip), vehicle: saline",114 % of control
same,T/C,"dose: 2.5 mg/kg/injection, schedule: Q04DX003 (ip), vehicle: saline",87 % of control
same,T/C,"dose: 3.1 mg/kg/injection, schedule: Q01DX001 (ip), vehicle: saline",105 % of control
same,T/C,"dose: 5.0 mg/kg/injection, schedule: Q01DX001 (ip), vehicle: saline",102 % of control
same,T/C,"dose: 5.0 mg/kg/injection, schedule: Q01DX009 (ip), vehicle: saline",91 % of control and 100 % of control
same,T/C,"dose: 5.0 mg/kg/injection, schedule: Q04DX003 (ip), vehicle: saline",93 % of control and 108 % of control
same,T/C,"dose: 6.2 mg/kg/injection, schedule: Q01DX001 (ip), vehicle: saline",94 % of control
same,T/C,"dose: 6.2 mg/kg/injection, schedule: Q04DX003 (ip), vehicle: saline",102 % of control
same,T/C,"dose: 7.5 mg/kg/injection, schedule: Q01DX009 (ip), vehicle: saline",86 % of control
same,T/C,"dose: 8.0 mg/kg/injection, schedule: Q01DX009 (ip), vehicle: saline",100 % of control
same,T/C,"dose: 10.0 mg/kg/injection, schedule: Q01DX001 (ip), vehicle: saline",92 % of control and 105 % of control
same,T/C,"dose: 10.0 mg/kg/injection, schedule: Q01DX009 (ip), vehicle: saline",97 % of control and 111 % of control
same,T/C,"dose: 10.0 mg/kg/injection, schedule: Q04DX003 (ip), vehicle: saline",87 % of control and 108 % of control
same,T/C,"dose: 12.5 mg/kg/injection, schedule: Q01DX009 (ip), vehicle: saline",105 % of control
same,T/C,"dose: 12.5 mg/kg/injection, schedule: Q04DX003 (ip), vehicle: saline",102 % of control
same,T/C,"dose: 20.0 mg/kg/injection, schedule: Q01DX001 (ip), vehicle: saline",105 % of control
same,T/C,"dose: 20.0 mg/kg/injection, schedule: Q01DX009 (ip), vehicle: saline",94 % of control and 102 % of control
same,T/C,"dose: 20.0 mg/kg/injection, schedule: Q04DX003 (ip), vehicle: saline",93 % of control and 106 % of control
same,T/C,"dose: 25.0 mg/kg/injection, schedule: Q01DX009 (ip), vehicle: saline",88 % of control and 105 % of control
same,T/C,"dose: 25.0 mg/kg/injection, schedule: Q04DX003 (ip), vehicle: saline",94 % of control
same,T/C,"dose: 40.0 mg/kg/injection, schedule: Q01DX001 (ip), vehicle: saline",105 % of control
same,T/C,"dose: 50.0 mg/kg/injection, schedule: Q01DX009 (ip), vehicle: saline",105 % of control and 110 % of control and 113 % of control
same,T/C,"dose: 64.0 mg/kg/injection, schedule: Q04DX003 (ip), vehicle: water",116 % of control
same,T/C,"dose: 500.0 mg/kg/injection, schedule: Q01DX001 (ip), vehicle: saline",88 % of control and 95 % of control
O=C(COc1ccc(Cl)c(Cl)c1)N(Cc1ccccc1)Cc1cccnc1,T/C,[4],110 % of control
same,T/C,[5],108 % of control
same,T/C,[6],102 % of control
CC(=O)CC(=O)Nc1ccc([N+](=O)[O-])cc1,T/C,"dose: 50.0 mg/kg/injection, schedule: Q01DX001 (ip), vehicle: other",100 % of control
same,T/C,"dose: 100.0 mg/kg/injection, schedule: Q01DX001 (ip), vehicle: other",98 % of control
same,T/C,[7],96 % of control
same,T/C,"dose: 200.0 mg/kg/injection, schedule: Q01DX001 (ip), vehicle: other",94 % of control
same,T/C,"dose: 400.0 mg/kg/injection, schedule: Q01DX001 (ip), vehicle: other",86 % of control
same,T/C,"dose: 400.0 mg/kg/injection, schedule: Q01DX001 (ip), vehicle: saline with Tween-80",92 % of control
CC(=O)N(C(C)=O)c1ccc(C)cc1,T/C,[1],93 % of control
same,T/C,[2],104 % of control
same,T/C,[3],104 % of control
COc1ccc2c3c(ccc2c1)C(=O)C(C)(C#N)CC3 (stereo not given),T/C,"dose: 37.5 mg/kg/injection, schedule: Q01DX001 (ip), vehicle: Klucel (hydroxypropylcellulose) (HPC)",92 % of control
same,T/C,"dose: 75.0 mg/kg/injection, schedule: Q01DX001 (ip), vehicle: Klucel (hydroxypropylcellulose) (HPC)",94 % of control
same,T/C,"dose: 150.0 mg/kg/injection, schedule: Q01DX001 (ip), vehicle: Klucel (hydroxypropylcellulose) (HPC)",100 % of control
same,T/C,"dose: 300.0 mg/kg/injection, schedule: Q01DX001 (ip), vehicle: Klucel (hydroxypropylcellulose) (HPC)",107 % of control
C/C=C(/C)N(C(C)=O)N(C(C)=O)c1ccc([N+](=O)[O-])cc1[N+](=O)[O-],T/C,[4],93 % of control
same,T/C,[5],93 % of control
same,T/C,"dose: 200.0 mg/kg/injection, schedule: Q04DX003 (ip), vehicle: Klucel (hydroxypropylcellulose) (HPC)",93 % of control
same,T/C,[6],93 % of control
O=C(O)CCC(=O)Nc1cccc(Oc2ccc([N+](=O)[O-])cc2[N+](=O)[O-])c1,T/C,[4],100 % of control
same,T/C,[5],87 % of control
same,T/C,[6],90 % of control
CC(=O)OCC(=O)[C@@]1(O)CC[C@H]2[C@@H]3C[C@H](F)C4=CC(=O)CC[C@]4(C)[C@H]3C(=O)C[C@@]21C,T/C,"dose: 50.0 mg/kg/injection, schedule: Q04DX003 (ip), vehicle: saline with Tween-80",103 % of control
same,T/C,[7],90 % of control
same,T/C,"dose: 200.0 mg/kg/injection, schedule: Q01DX001 (ip), vehicle: saline with Tween-80",111 % of control
CC(=O)CC(=O)c1ccccc1.CC(=O)CC(=O)c1ccccc1.CC(=O)CC(=O)c1ccccc1.[Co],T/C,"dose: 25.0 mg/kg/injection, schedule: Q01DX001 (ip), vehicle: Klucel (hydroxypropylcellulose) (HPC)",100 % of control
same,T/C,"dose: 50.0 mg/kg/injection, schedule: Q01DX001 (ip), vehicle: Klucel (hydroxypropylcellulose) (HPC)",100 % of control
